According to patent publication US8410117B2, “Imidazopyrimidine derivatives” (Hoffmann-La Roche Inc., priority 2010, dated 2013):

These compounds were tested against T1, human PDE10A (Homo sapiens, UniProt Q9Y233) (assay: human PDE10A full length Scintillation Proximity Assay (SPA)). Conditions: 50 nM cGMP and 50 nM [3H]-cGMP, 20 minutes at room temperature; read-out: PDE10A inhibition IC50.
T1 construct: The human PDE10A full length assay; purchased Enzo Life Science, Lausen, Switzerland SE-534
T1 sequence (Q9Y233 1-779 isoform Q9Y233-1): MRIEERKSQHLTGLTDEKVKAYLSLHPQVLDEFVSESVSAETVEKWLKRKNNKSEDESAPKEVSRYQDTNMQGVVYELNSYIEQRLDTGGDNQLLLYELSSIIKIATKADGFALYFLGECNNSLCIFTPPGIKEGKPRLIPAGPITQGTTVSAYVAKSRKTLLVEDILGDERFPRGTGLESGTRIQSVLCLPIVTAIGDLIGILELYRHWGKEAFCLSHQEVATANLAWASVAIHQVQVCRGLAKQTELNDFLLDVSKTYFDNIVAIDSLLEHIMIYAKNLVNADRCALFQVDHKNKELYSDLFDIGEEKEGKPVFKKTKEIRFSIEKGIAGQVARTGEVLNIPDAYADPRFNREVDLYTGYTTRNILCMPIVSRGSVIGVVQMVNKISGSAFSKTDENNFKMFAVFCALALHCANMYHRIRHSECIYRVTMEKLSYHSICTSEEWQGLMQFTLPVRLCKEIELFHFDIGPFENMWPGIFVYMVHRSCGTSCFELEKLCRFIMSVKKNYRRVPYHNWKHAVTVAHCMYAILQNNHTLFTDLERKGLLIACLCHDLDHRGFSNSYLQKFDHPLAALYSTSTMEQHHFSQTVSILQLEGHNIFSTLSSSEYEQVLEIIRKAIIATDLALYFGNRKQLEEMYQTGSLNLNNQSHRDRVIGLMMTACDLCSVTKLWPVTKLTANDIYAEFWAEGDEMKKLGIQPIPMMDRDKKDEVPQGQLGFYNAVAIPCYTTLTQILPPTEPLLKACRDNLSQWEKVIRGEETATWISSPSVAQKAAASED
Assay type: biochemical
Description: The following test was carried out in order to determine the activity of the compounds of the present invention. PDE10 activity of the compounds of the present invention was determined using a Scintillation Proximity Assay (SPA)-based method similar to the one previously described (Fawcett, L. et al., Proc Natl Acad Sci USA (2000) 97(7):3702-3707).
The human PDE10A full length assay was performed in 96-well micro titer plates. The reaction mixture of 50 μl contained 20 mM HEPES pH=7.5/10 mM MgCl2/0.05 mg/ml BSA (Sigma cat. #A-7906), 50 nM cGMP (Sigma, cat. #G6129) and 50 nM [^3H]-cGMP (GE Healthcare, cat. #TRK392 S.A. 13.2 Ci/mmol), 3.75 ng/well PDE10A enzyme (Enzo Life Science, Lausen, Switzerland cat #SE-534) with or without a specific test compound. A range of concentrations of the potential inhibitor was used to generate data for calculating the concentration of inhibitor resulting in 50% of the effect (e.g. IC50, the concentration of the competitor inhibiting PDE10A activity by 50%). Non-specific activity was tested without the enzyme. The reaction was initiated by the addition of the substrate solution (cGMP and [^3H]-cGMP) and allowed to progress for 20 minutes at room temperature. The reaction was terminated by adding 25 μl of YSi-SPA scintillation beads (GE Healthcare, cat. #RPNQ0150) in 18 mM zinc sulphate solution (stop reagent). After 1 h under shaking, the plate was centrifuged one minute at 170 g to allow beads to settle. Afterwards, radioactive counts were measured on a Perkin Elmer TopCount Scintillation plate reader.

IC50	Compound
900 nM	O=C(NCC(F)(F)F)c1nccnc1C(=O)Nc1ccn2cc(-c3ccccc3)nc2n1 [Example 43, Pyrazine-2,3-dicarboxylic acid 2-[(2-phenyl-imidazo[1,2-a]pyrimidin-7-yl)-amide]3-[(2,2,2-trifluoro-ethyl)-amide]]
813 nM	O=C(Nc1ccn2cc(-c3ccccc3)nc2n1)c1cccnc1C(=O)N1CCC1 [Example 44, 2-(Azetidine-1-carbonyl)-N-(2-phenyl-imidazo[1,2-a]pyrimidin-7-yl)-nicotinamide]
8.3 nM	COc1cccc(-c2cn3ccc(NC(=O)c4c(C(=O)N5CCC5)cnn4C)nc3n2)c1 [Example 45, 4-(Azetidine-1-carbonyl)-2-methyl-2H-pyrazole-3-carboxylic acid [2-(3-methoxy-phenyl)-imidazo[1,2-a]pyrimidin-7-yl]-amide]
785 nM	COCCNC(=O)c1cnn(C)c1C(=O)Nc1ccn2cc(-c3ccccc3)nc2n1 [Example 46, 2-Methyl-2H-pyrazole-3,4-dicarboxylic acid 4-[(2-methoxy-ethyl)-amide]3-[(2-phenyl-imidazo[1,2-a]pyrimidin-7-yl)-amide]]
15.2 nM	CCN(CC)C(=O)c1cnn(C)c1C(=O)Nc1ccn2cc(-c3ccccc3)nc2n1 [Example 47, 2-Methyl-2H-pyrazole-3,4-dicarboxylic acid 4-diethylamide 3-[(2-phenyl-imidazo[1,2-a]pyrimidin-7-yl)-amide]]
3.5 nM	Cn1ncc(C(=O)N2CCCC2)c1C(=O)Nc1ccn2cc(-c3ccccc3)nc2n1 [Example 48, 2-Methyl-4-(pyrrolidine-1-carbonyl)-2H-pyrazole-3-carboxylic acid (2-phenyl-imidazo[1,2-a]pyrimidin-7-yl)-amide]
1.9 nM	CCN(C)C(=O)c1cnn(C)c1C(=O)Nc1ccn2cc(-c3ccccc3)nc2n1 [Example 49, 2-Methyl-2H-pyrazole-3,4-dicarboxylic acid 4-(ethyl-methyl-amide) 3-[(2-phenyl-imidazo[1,2-a]pyrimidin-7-yl)-amide]]
24.4 nM	CCNC(=O)c1cnn(C)c1C(=O)Nc1ccn2cc(-c3ccccc3)nc2n1 [Example 50, 2-Methyl-2H-pyrazole-3,4-dicarboxylic acid 4-ethylamide 3-[(2-phenyl-imidazo[1,2-a]pyrimidin-7-yl)-amide]]
14.8 nM	Cn1ncc(C(=O)NC2CC2)c1C(=O)Nc1ccn2cc(-c3ccccc3)nc2n1 [Example 51, 2-Methyl-2H-pyrazole-3,4-dicarboxylic acid 4-cyclopropylamide 3-[(2-phenyl-imidazo[1,2-a]pyrimidin-7-yl)-amide]]
2.9 nM	Cn1ncc(C(=O)N2CCCCC2)c1C(=O)Nc1ccn2cc(-c3ccccc3)nc2n1 [Example 52, 2-Methyl-4-(piperidine-1-carbonyl)-2H-pyrazole-3-carboxylic acid (2-phenyl-imidazo[1,2-a]pyrimidin-7-yl)-amide]
23.6 nM	CN(CCO)C(=O)c1cnn(C)c1C(=O)Nc1ccn2cc(-c3ccccc3)nc2n1 [Example 53, 2-Methyl-2H-pyrazole-3,4-dicarboxylic acid 4-[(2-hydroxy-ethyl)-methyl-amide]3-[(2-phenyl-imidazo[1,2-a]pyrimidin-7-yl)-amide]]
34.3 nM	CC(C)N(C)C(=O)c1cnn(C)c1C(=O)Nc1ccn2cc(-c3ccccc3)nc2n1 [Example 54, 2-Methyl-2H-pyrazole-3,4-dicarboxylic acid 4-(isopropyl-methyl-amide) 3-[(2-phenyl-imidazo[1,2-a]pyrimidin-7-yl)-amide]]
8.5 nM	COCCN(C)C(=O)c1cnn(C)c1C(=O)Nc1ccn2cc(-c3ccccc3)nc2n1 [Example 55, 2-Methyl-2H-pyrazole-3,4-dicarboxylic acid 4-[(2-methoxy-ethyl)-methyl-amide]3-[(2-phenyl-imidazo[1,2-a]pyrimidin-7-yl)-amide]]
17.3 nM	CCCN(C)C(=O)c1cnn(C)c1C(=O)Nc1ccn2cc(-c3ccccc3)nc2n1 [Example 56, 2-Methyl-2H-pyrazole-3,4-dicarboxylic acid 4-(methyl-propyl-amide) 3-[(2-phenyl-imidazo[1,2-a]pyrimidin-7-yl)-amide]]
23 nM	CCCNC(=O)c1cnn(C)c1C(=O)Nc1ccn2cc(-c3ccccc3)nc2n1 [Example 57, 2-Methyl-2H-pyrazole-3,4-dicarboxylic acid 3-[(2-phenyl-imidazo[1,2-a]pyrimidin-7-yl)-amide]-4-propylamide]
27.3 nM	Cn1ncc(C(=O)NCC2CC2)c1C(=O)Nc1ccn2cc(-c3ccccc3)nc2n1 [Example 58, 2-Methyl-2H-pyrazole-3,4-dicarboxylic acid 4-cyclopropylmethyl-amide 3-[(2-phenyl-imidazo[1,2-a]pyrimidin-7-yl)-amide]]
21.1 nM	Cn1ncc(C(=O)NC2CCC2)c1C(=O)Nc1ccn2cc(-c3ccccc3)nc2n1 [Example 59, 2-Methyl-2H-pyrazole-3,4-dicarboxylic acid 4-cyclobutylamide 3-[(2-phenyl-imidazo[1,2-a]pyrimidin-7-yl)-amide]]
80.6 nM	CC(C)NC(=O)c1cnn(C)c1C(=O)Nc1ccn2cc(-c3ccccc3)nc2n1 [Example 60, 2-Methyl-2H-pyrazole-3,4-dicarboxylic acid 4-isopropylamide 3-[(2-phenyl-imidazo[1,2-a]pyrimidin-7-yl)-amide]]
23.5 nM	Cn1ncc(C(=O)N2CCC2)c1C(=O)Nc1ccn2cc(-c3cccc(OC(F)(F)F)c3)nc2n1 [Example 61, 4-(Azetidine-1-carbonyl)-2-methyl-2H-pyrazole-3-carboxylic acid [2-(3-trifluoromethoxy-phenyl)-imidazo[1,2-a]pyrimidin-7-yl]-amide]
12.9 nM	CCOC(=O)c1cnn(CC)c1C(=O)Nc1ccn2cc(-c3ccccc3)nc2n1 [Example 62, 1-Ethyl-5-(2-phenyl-imidazo[1,2-a]pyrimidin-7-ylcarbamoyl)-1H-pyrazole-4-carboxylic acid ethyl ester]
4.8 nM	Cn1ncc(C(=O)N2CCC2)c1C(=O)Nc1ccn2cc(-c3cccc(Cl)c3)nc2n1 [Example 63, 4-(Azetidine-1-carbonyl)-2-methyl-2H-pyrazole-3-carboxylic acid [2-(3-chloro-phenyl)-imidazo[1,2-a]pyrimidin-7-yl]-amide]
6.5 nM	CCn1ncc(C(=O)NC)c1C(=O)Nc1ccn2cc(-c3ccccc3)nc2n1 [Example 64, 2-Ethyl-2H-pyrazole-3,4-dicarboxylic acid 4-methylamide 3-[(2-phenyl-imidazo[1,2-a]pyrimidin-7-yl)-amide]]
34.8 nM	CNC(=O)c1[nH]nnc1C(=O)Nc1ccn2cc(-c3ccccc3)nc2n1 [Example 65, 1H-[1,2,3]Triazole-4,5-dicarboxylic acid 5-methylamide 4-[(2-phenyl-imidazo[1,2-a]pyrimidin-7-yl)-amide]]
11.5 nM	Cn1cc(C(=O)Nc2ccn3cc(-c4ccccc4)nc3n2)c(C(=O)N2CCC2)n1 [Example 66, 3-(Azetidine-1-carbonyl)-1-methyl-1H-pyrazole-4-carboxylic acid (2-phenyl-imidazo[1,2-a]pyrimidin-7-yl)-amide]
25.7 nM	CCN(C)C(=O)c1nn(C)cc1C(=O)Nc1ccn2cc(-c3ccccc3)nc2n1 [Example 67, 1-Methyl-1H-pyrazole-3,4-dicarboxylic acid 3-(ethyl-methyl-amide) 4-[(2-phenyl-imidazo[1,2-a]pyrimidin-7-yl)-amide]]
37.7 nM	CCN(C)C(=O)c1cn(C)nc1C(=O)Nc1ccn2cc(-c3ccccc3)nc2n1 [Example 68, 1-Methyl-1H-pyrazole-3,4-dicarboxylic acid 4-(ethyl-methyl-amide) 3-[(2-phenyl-imidazo[1,2-a]pyrimidin-7-yl)-amide]]
4.4 nM	CCn1ncc(C(=O)N2CCC2)c1C(=O)Nc1ccn2cc(-c3ccccc3)nc2n1 [Example 69, 4-(Azetidine-1-carbonyl)-2-ethyl-2H-pyrazole-3-carboxylic acid (2-phenyl-imidazo[1,2-a]pyrimidin-7-yl)-amide]
33.2 nM	CN(CCC#N)C(=O)c1cnn(C)c1C(=O)Nc1ccn2cc(-c3ccccc3)nc2n1 [Example 70, 2-Methyl-2H-pyrazole-3,4-dicarboxylic acid 4-[(2-cyano-ethyl)-methyl-amide]3-[(2-phenyl-imidazo[1,2-a]pyrimidin-7-yl)-amide]]
17.6 nM	CC(C)CN(C)C(=O)c1cnn(C)c1C(=O)Nc1ccn2cc(-c3ccccc3)nc2n1 [Example 71, 2-Methyl-2H-pyrazole-3,4-dicarboxylic acid 4-(isobutyl-methyl-amide) 3-[(2-phenyl-imidazo[1,2-a]pyrimidin-7-yl)-amide]]
463 nM	Cn1ncc(C(=O)NCC(C)(C)O)c1C(=O)Nc1ccn2cc(-c3ccccc3)nc2n1 [Example 72, 2-Methyl-2H-pyrazole-3,4-dicarboxylic acid 4-[(2-hydroxy-2-methyl-propyl)-amide]3-[(2-phenyl-imidazo[1,2-a]pyrimidin-7-yl)-amide]]
